{"source": "patent US20110038920A1", "about": "“WOUND HEALING COMPOSITIONS AND TREATMENTS” (priority 2008, published 2011)", "key": {"chronic ulcers": {"tested_on": "chronic ulcers", "details": "cited from earlier work"}, "[1]": {"tested_on": "OPN expression in Swiss 3T3 fibroblasts", "test": "Induction of OPN expression in fibroblasts by growth factors/cytokines (Western blot)", "type": "cell-based", "details": "for ability to upregulate OPN expression in Swiss 3T3s: 8 h, PDGF-BB 20, EGF 100, TGFβ1 10, TGFβ3 10, IL-6 50, TNFα 10 ng/ml", "method": "(§1) Protein samples (20 μg; collected in T-PER® Reagent; PIERCE Biotechnology) were separated on Tris-Glycine Gels (Invitrogen), transferred to PVDF, and blotted according to standard protocols (antibody details are provided above).\n(§2) Swiss 3T3, J774.1 macrophages, and RBL mast cells were cultured in DMEM+10% fetal calf serum. Primary neutrophils were harvested by peritoneal lavage 4 h post-thioglycollate-induced peritonitis, and primary macrophages were derived from mouse bone marrow and activated with LPS (500 ng/ml)."}, "[2]": {"tested_on": "OPN expression in Swiss 3T3 fibroblasts exposed to macrophage CM", "test": "Macrophage-CM induction of OPN in fibroblasts with inhibitors (Western blot)", "type": "cell-based", "details": "co-treatment; Gleevec 2-20 μM, PDGF-Rβ nAb 2 μg/ml, wortmannin 100 nM", "method": "as §1, §2"}, "[3]": {"tested_on": "pulmonary and dermal fibrosis", "details": "Distler et al. 2007; Aono et al. 2005; cited from earlier work"}, "Mouse OPN mRNA": {"tested_on": "Mouse OPN mRNA", "test": "AS ODN cleavage of OPN mRNA in vitro (RNase H)", "type": "biochemical", "details": "ODN final concentration 2 μM, 20 min at 37° C., compared among the AS ODNs", "method": "Dz cleavage of OPN mRNA in vitro: Mouse OPN mRNA was transcribed from the IMAGE clone (GenBank, BC057858; (Geneservice Ltd), and resulting RNA was purified with RNeasy MinElute Cleanup Kit (Qiagen). RNA (0.3 μg/5 μl) was incubated in the cleavage buffer (10 mM MgCl2, 5 mM Tris (pH 7.5), 150 mM NaCl) for 5 min at 37° C., as was 5 μl of Dzs (40 μM; MWG Biotech). These were then combined and incubated for 1 h. RNA products were separated on 2% formaldehyde-agarose gel and stained with SYBR Gold nucleic acid gel stain (Invitrogen) to determine cleaving efficiency (FIG. 6 A).\nAS ODN cleavage in vitro: To evaluate the cleaving efficiency of the AS ODNs, transcribed RNA (0.3 μg) was incubated with control or OPN AS ODNs (final concentration of 2 μM; MWG Biotech), RNase H (Invitrogen. Corp.), and RNasin (to inhibit non-specific RNA degradation; Promega) in a final volume 10 μl of cleavage buffer, and incubated for 20 min at 37° C. RNA products were separated on 2% formaldehyde-agarose gel and stained with SYBR Gold nucleic acid gel stain (Invitrogen Corp.) to determine cleaving efficiency (FIG. 6 B)."}}, "note": "Where a name gives a salt, the structure may show the parent alone.", "data": [{"compound": "PDGF-BB: growth factor, R&D Systems", "values": [{"measurement": "granulation tissue and scarring", "setting": "chronic ulcers; in vivo", "result": "increased granulation tissue and scarring"}, {"measurement": "healing of chronic ulcers", "setting": "chronic ulcers; topical application to wounds (Chan et al. 2006)", "result": "accelerate the healing"}, {"measurement": "ability to upregulate OPN expression in Swiss 3T3s", "setting": "[1]", "result": "significantly upregulate"}, {"measurement": "time of peak OPN levels after initial exposure", "setting": "[1]; Swiss 3T3 fibroblasts, 20 ng/ml PDGF-BB", "result": "about 8 h"}, {"measurement": "minimum window of exposure required for OPN expression", "setting": "[1]; Swiss 3T3 fibroblasts, 20 ng/ml PDGF-BB, analysed at 8 h", "result": "≥ 2", "unit": "h"}]}, {"compound": "TGFβ1: growth factor/cytokine, BioVision", "values": [{"measurement": "ability to upregulate OPN expression in Swiss 3T3s", "setting": "[1]", "result": "not"}]}, {"compound": "Cc1ccc(NC(=O)c2ccc(CN3CCN(C)CC3)cc2)cc1Nc1nccc(-c2cccnc2)n1", "note": "[Gleevec, imatinib mesylate]", "values": [{"measurement": "OPN expression during fibroblast exposure to macrophage CM", "setting": "[2]", "result": "significantly reduced"}, {"measurement": "pulmonary and dermal fibrosis", "setting": "[3]", "result": "reduces pulmonary and dermal fibrosis"}]}, {"compound": "IL-6: cytokine, BioSource", "values": [{"measurement": "ability to upregulate OPN expression in Swiss 3T3s", "setting": "[1]", "result": "not"}]}, {"compound": "OPN AS ODN (943): osteopontin antisense oligodeoxynucleotide actatcgatcacatccg (SEQ.ID.NO: 164) (antisense ACTATCGATCACATCCG; DNA, backbone not given here)", "values": [{"measurement": "effectiveness at cleaving OPN mRNA", "setting": "Mouse OPN mRNA", "result": "most effective"}]}, {"compound": "EGF: growth factor, R&D Systems (NSDSECPLSHDGYCLHDGVCMYIEALDKYACNCVVGYIGERCQYRDLKWWELR; Epidermal growth factor; UniProt P01133 971-1023, looked up)", "values": [{"measurement": "ability to upregulate OPN expression in Swiss 3T3s", "setting": "[1]", "result": "not"}]}]}
